The values that follow come from PubChem BioAssay (NCI).

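How tested: cells in 96-well plates exposed to compound for 48 hours at five concentrations. Definition used: TGI = concentration required for complete inhibition of growth.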

Some test systems named below: BT-549 breast; CCRF-CEM leukemia; DU-145 prostate; HCC-2998 colon; HOP-62 NSCLC; HT29 colon; M14 melanoma; MALME-3M melanoma; OVCAR-3 ovarian; PC-3 prostate; SF-268 CNS; SF-295 CNS; SF-539 CNS; SK-OV-3 ovarian; SR leukemia; UACC-257 melanoma.
What all share (experiment): DTP human tumour cell line panel, 48 h

With `O=C(O)CNC(=O)CO/N=C1/C(c2c(O)[nH]c3ccccc23)=Nc2ccccc21`, the TGI in the test on BT-549 breast was more than 100 µM; in the test with CCRF-CEM leukemia, more than 100 µM; with DU-145 prostate it was more than 100 µM; in the test on HCC-2998 colon, more than 100 µM; with HOP-62 NSCLC, 87.3 µM; in the test on HT29 colon it was more than 100 µM. Besides, the TGI in the test with M14 melanoma, with MALME-3M melanoma, in the test with OVCAR-3 ovarian, with PC-3 prostate, in the test with SF-268 CNS and in the test on SF-295 CNS was more than 100 µM each time. Further, the TGI with SF-539 CNS, in the test with SK-OV-3 ovarian, in the test on SR leukemia and in the test with UACC-257 melanoma was more than 100 µM each time.

As for `CN(C)c1ccc(/C=C2/SC(=S)NC2=O)cc1`, the TGI with BT-549 breast, with CCRF-CEM leukemia, with DU-145 prostate, in the test with HCC-2998 colon, with HOP-62 NSCLC and with HT29 colon was more than 100 µM each time. Also, the TGI in the test with M14 melanoma, with MALME-3M melanoma, in the test with OVCAR-3 ovarian, in the test on PC-3 prostate, with SF-268 CNS and in the test on SF-295 CNS was more than 100 µM each time. Moreover, the TGI in the test with SF-539 CNS, in the test on SK-OV-3 ovarian, with SR leukemia and in the test with UACC-257 melanoma was more than 100 µM in each case.

With `CCc1n[nH]c(=S)n1/N=C\c1ccc(-c2ccccc2Cl)o1`, the TGI in the test with BT-549 breast is 66.6 µM; in the test with CCRF-CEM leukemia it was more than 100 µM; in the test with DU-145 prostate it was more than 100 µM; with HCC-2998 colon, 83.3 µM; in the test on HOP-62 NSCLC it was more than 100 µM; in the test with HT29 colon it was more than 100 µM. Moreover, the TGI in the test on M14 melanoma, with MALME-3M melanoma, with OVCAR-3 ovarian, in the test with PC-3 prostate, with SF-268 CNS and with SF-295 CNS was more than 100 µM in each case. Also, the TGI in the test with SF-539 CNS is 61.9 µM; in the test with SK-OV-3 ovarian, more than 100 µM; in the test on SR leukemia, 53.5 µM; in the test on UACC-257 melanoma, more than 100 µM.

One may read the TGI as the concentration at which net growth stops.
